Experimental data published in PubChem BioAssay AID1404 (The Scripps Research Institute Molecular Screening Center, 2008).
Active and inactive are the calls of the source.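 The calls were made as follows: active = EC50 for STAT3 reporter activation at or below 10 µM; inactive = the rest.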

The molecules below were run on U3A cells, IL-6 STAT3 luciferase reporter, luminescence (assay: STAT3 activators in IL-6-stimulated reporter cells, dose response, counter-screen for STAT1 activator project, U3A cells, STAT1-deficient, luminescence, IL-6 stimulus (AID 1404)).
With `CCOC(=O)c1cnc2c(-c3ccccc3)cnn2c1N` the EC50 was > 55.7 µM (inactive). With `CC(=O)NC(=S)Nc1sc2c(c1C#N)CCCCC2` the EC50 was > 55.7 µM (inactive). `O=C(NCCC1=CCCCC1)c1ccc(F)cc1` was tested, and the EC50 was > 55.7 µM (inactive). For `O=C(/C(C=Nc1ccc(Br)cc1)=C(/O)c1ccco1)C(F)(F)F`, the EC50 was > 55.7 µM (inactive). `Cc1nc2ccc3nc(NC(=O)c4ccco4)sc3c2s1` was tested, and the EC50 was > 55.7 µM (inactive). For `O=C(/C(C=Nc1ccc(F)cc1)=C(/O)c1ccco1)C(F)(F)F`, the EC50 was > 55.7 µM (inactive). With `COc1cc(NC(=O)c2csc3c2CCCC3)ncn1` the EC50 was > 55.7 µM (inactive). `c1ccc(CNc2ccc3ccccc3n2)nc1` was tested, and the EC50 was > 55.7 µM (inactive). With `Cc1ccc(/C=C/C(=O)Nc2ccccc2C(N)=O)cc1` the EC50 was > 55.7 µM (inactive). In the case of `CCC(C)NC(=O)c1cc(-c2ccc(OC)cc2)on1` (stereo not drawn), the EC50 is reported as > 55.7 µM (inactive). In the case of `NC(=O)Cc1ccc2sc(-c3ccccc3)nc2c1`, the EC50 is reported as > 55.7 µM (inactive). For `O=C(/C=C/c1cccc(F)c1)N1CCc2ccccc21`, the EC50 was > 55.7 µM (inactive). `CC(C)=CC(=O)Nc1nc2ccc([N+](=O)[O-])cc2s1` was tested, and the EC50 was > 55.7 µM (inactive). `CCOC(=O)CSc1nc(-c2ccncc2)ccc1C#N` was tested, and the EC50 was > 55.7 µM (inactive). In the case of `O=C(/C=C/Nc1ccc(F)cc1)c1ccc(Br)cc1`, the EC50 is reported as > 55.7 µM (inactive). `CN(C)c1ccc(C(=O)OCC(=O)c2cccs2)cc1` was tested, and the EC50 was > 55.7 µM (inactive). In the case of `CCc1c(C)[nH]c(C(=O)OCc2ccccc2)c1C`, the EC50 is reported as > 55.7 µM (inactive). In the case of `C/C(=C\c1ccccc1)C(=O)Nc1nccs1`, the EC50 is reported as > 55.7 µM (inactive). For `O=C(/C=C/c1ccccc1)Nc1ccc(Cl)cn1`, the EC50 was > 55.7 µM (inactive). With `CCOc1ccc2nc(N3CCOCC3)nc(C)c2c1` the EC50 was > 55.7 µM (inactive). In the case of `Cc1ccc(-c2cc(N)n(-c3ccccc3)n2)cc1`, the EC50 is reported as > 55.7 µM (inactive). For `Nc1ccc2nn(-c3ccccc3)nc2c1`, the EC50 was > 55.7 µM (inactive). `Nc1nc2ccc(-c3nc4ccccc4o3)cc2s1` was tested, and the EC50 was > 55.7 µM (inactive). For `CC(=O)Nc1ccccc1C(=O)OCc1cccc(F)c1`, the EC50 was > 55.7 µM (inactive). `O=C(/C=C/c1ccco1)Nc1ccccn1` was tested, and the EC50 was > 55.7 µM (inactive). `COc1cccc(NC(=O)Nc2ccc(C(C)(C)C)cc2)c1` was tested, and the EC50 was > 55.7 µM (inactive). In the case of `c1cncc(-c2nc3cc4ccccc4cc3[nH]2)c1`, the EC50 is reported as > 55.7 µM (inactive). `COc1cccc(N/C=C/C(=O)c2ccc(Cl)cc2)c1` was tested, and the EC50 was > 55.7 µM (inactive). In the case of `CC(=O)Nc1ccc(-c2csc(Nc3cccc(C)n3)n2)cc1`, the EC50 is reported as > 55.7 µM (inactive). In the case of `Clc1ccc(-n2ncc3c(NCC4CCCO4)ncnc32)cc1` (stereo not drawn), the EC50 is reported as > 55.7 µM (inactive). With `CC(=O)Nc1cccc(-c2cnc3ccccc3n2)c1` the EC50 was > 55.7 µM (inactive). For `COc1ccc(NC(=S)Nc2ccc3nccnc3c2)cc1`, the EC50 was > 55.7 µM (inactive). For `CN(C)c1ccnc2sc(C(=O)c3ccccc3)c(N)c12`, the EC50 was > 55.7 µM (inactive). In the case of `O=C(NC(=S)Nc1ccccn1)c1ccc([N+](=O)[O-])cc1`, the EC50 is reported as > 55.7 µM (inactive). For `CCNc1nc(-c2cc3ccccc3o2)cs1`, the EC50 was > 55.7 µM (inactive). With `CCCCOC(=O)Nc1nc2ccccc2s1` the EC50 was > 55.7 µM (inactive). For `O=C(Cn1cnc2ccccc2c1=O)c1ccc(Cl)cc1`, the EC50 was > 55.7 µM (inactive). In the case of `COc1ccc(N/C=C\C(=O)c2ccc3c(c2)OCO3)cc1OC`, the EC50 is reported as > 55.7 µM (inactive). With `Cc1occc1C(=O)Nc1ccc2c(c1)CCC2` the EC50 was > 55.7 µM (inactive). `CCOC(=O)c1ccc2nc(NC(C)=O)sc2c1` was tested, and the EC50 was > 55.7 µM (inactive). `COc1ccc(Nc2oc(-c3cccs3)nc2C#N)cc1` was tested, and the EC50 was > 55.7 µM (inactive). `Nc1ccccc1Nc1cc(-c2ccccc2)[nH]n1` was tested, and the EC50 was > 55.7 µM (inactive). With `CCc1ccc(Nc2ncc3c(n2)CC(C)CC3=O)cc1` (stereo not drawn) the EC50 was > 55.7 µM (inactive). For `Clc1ccc(-n2ncc3c(N4CCCC4)ncnc32)cc1`, the EC50 was > 55.7 µM (inactive). In the case of `Fc1ccccc1CSc1nnc(-c2cccnc2)o1`, the EC50 is reported as > 55.7 µM (inactive). In the case of `O=[N+]([O-])c1ccccc1OCCCn1cnc2ccccc21`, the EC50 is reported as > 55.7 µM (inactive). For `Cc1nnc(SCC(=O)Nc2ccc(-c3nc4ccccc4s3)cc2)s1`, the EC50 was > 55.7 µM (inactive). `CCOC(=O)/C(C#N)=C/c1cc(C)n(-c2ccccc2)c1C` was tested, and the EC50 was > 55.7 µM (inactive). With `CC(=O)c1cccc(NC(=S)NC(=O)c2cccc(C)c2)c1` the EC50 was > 55.7 µM (inactive). With `Cc1ccc(-c2cnc(-c3ccncc3)o2)cc1` the EC50 was > 55.7 µM (inactive). With `Fc1ccc2nc(Nc3nc4cc5c(cc4s3)OCCO5)sc2c1` the EC50 was > 55.7 µM (inactive). In the case of `COc1ccc(-c2csc(N3C(=O)CNC3=S)n2)cc1`, the EC50 is reported as > 55.7 µM (inactive). In the case of `O=C(Nc1cccc(Cl)c1)c1ccc2c(=O)n3c(nc2c1)CCCCC3`, the EC50 is reported as > 55.7 µM (inactive).
